Marks after values point to notes of the source that are not given here.
Tests used:
LL/2 cell line = assay: mGI-101 and Axitinib in LL/2 allotransplanted tumor model; assay type: in vivo, C57BL/6 mice; details: mGI-101 3 mg/kg IP, Axitinib 30 mg/kg PO
Procedure: (§1) Mouse-derived colorectal cancer cells, CT26 (Mus musculus, Colon adenocarcinoma), and mouse-derived lung cancer cells, LL/2 (Mus musculus, Lung adenocarcinoma), were purchased from ATCC (USA) and used for the test. The cells to be used for the test were thawed, mixed with RPMI1640 (A1049101, Thermofisher scientific) medium containing 10% FBS (fetal bovine serum, Gibco, 10082-147), and then placed in a cell culture flask, and cultured in a 37° C., 5% CO2 incubator. The cells were washed with PBS, and then the cells were isolated using Trypsin-EDTA (15090, Gibco), and centrifugation (125×g, 5 minutes) was performed to discard the supernatant, and then the cells were suspended in a new medium to obtain the cell suspension. The viability of the cells was identified, and then a cell line was prepared by diluting in a medium to a concentration of 5.0×10^6 cells/mL.
(§2) 6-week-old male BALB/cAnHsd mice or C57BL/6NHsd mice were purchased and used for the test. After the end of the acclimation period of 7 days, the cells were transplanted into healthy animals. The cell suspension (5×10^6 cells/mL) was dispensed, and filled into a disposable syringe, and transplantation of the suspension was performed by subcutaneous administration at 0.1 mL/head in the right dorsal region of the animals. General symptoms were observed once a day during the engraftment and growth period after cell line transplantation.
(§3) After the inoculation of the cell line was performed, when the tumor size at the site to which the cell line was transplanted reached about 50 mm^3, the tumor size of each group was distributed as uniformly as possible according to the ranked tumor size.
(§4) The test substance was administered orally or intraperitoneally, and administered for 3 weeks depending on the composition of the test group. In the case of oral administration, the animals were fixed with the cervical spine skin fixation method, and administered directly into the stomach using a sonde for oral administration. In the case of intraperitoneal administration, the animals were fixed with the cervical spine skin fixation method, and administered intraperitoneally using a syringe equipped with a 26 gauge needle. The administration rate was not to exceed 200 μl/min.
Syngeneic model was prepared by subcutaneously transplanting the LL/2 cell line into C57BL/6 mice, and then the test substance was administered to evaluate the anticancer effect.

CT26 cells = assay: mGI-101 and Axitinib in CT26 allotransplanted tumor model; details: mGI-101 3 mg/kg IP, Axitinib 30 mg/kg PO;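 also: subcutaneous CT26 syngeneic tumors in male BALB/c mice, dosing started once tumors were near 50 mm^3, drugs given orally or intraperitoneally for up to 3 weeks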
Procedure: as §1, §2, §3, §4
Syngeneic model was prepared by subcutaneously transplanting the CT26 cell line into Balb/c mice, and then the test substance was administered to evaluate the anticancer effect.

[1] = tested on: CT26 (mouse colon carcinoma) cells; assay: mGI-101 and Galunisertib in CT26 allotransplanted tumor model; assay type: in vivo, BALB/cAnHsd mice; details: mean ± SD, mGI-101 3 mg/kg IP, Galunisertib 75 mg/kg PO
Procedure: 6-week-old male BALB/cAnHsd mice were purchased and used for the test.
The tumor size was measured three times a week for 3 weeks from the day of start of administration of the test substance. The major axis and minor axis of the tumor were measured using a caliper, and the tumor size (tumor volume, TV) was calculated using the following equations. TV (mm^3)=(W^2×L)/2 [Equation 1]

EMT6 cells = assay: mGI-101 and Paclitaxel in EMT6 allotransplanted tumor model; assay type: in vivo, BALB/c mice
Procedure: EMT6 cells were purchased from ATCC (USA) and cultured in Waymouth MB 751/1 medium (WELGENE) containing 10% FBS (Gibco) and 1% antibiotic/antifungal agent (Gibco). The cultured cells were harvested using trypsin (Gibco), and then a high-concentration cell suspension (2×10^6 cells/0.4 mL) for 10 mice was prepare with PBS and stored on ice until injected into mice. In order to establish an allotransplanted tumor model, the skin was incised slightly away from the 4th nipple position from the upper right of the ventral region of BALB/c female mice (7-week-old), and the location of mammary fat pad at the incised site was identified, and then EMT6 cell line prepared inside the mammary fat pad was injected at 2×10^5 cells/40 uL/head.
A certain period of time after cell inoculation of the tumor grafts of the mice, the tumor volume was measured for animals with no abnormalities in the health condition of the animals, and the subjects were selected so that the average of each group reached less than 70-100 mm^3, and the selected animals were assigned as evenly as possible based on tumor volume and body weight, each group including 10 animals. As shown in Table 24 and FIG. 106, the test groups were configured and the test substances were administered.
Clinical symptoms such as a disease and a behavioral change were observed once a day during the test period, and deceased animals were identified, and the mice were sacrificed when the tumor size reached a size of 4,000 mm^3.
The tumor volume before administration of each subject was set as the value measured at the time of grouping, and the anti-tumor efficacy was evaluated as compared with the vehicle control.
All statistical calculations were performed using Prism 8.0 (Graph Pad Software Inc, USA). The comparison of tumor volume measurements was made through two-way analysis of variance followed by Tukey's multiple comparison test. A p value of less than 0.05 was considered significant.

MDA-MB-231 cells = assay: GI101 and Keytruda in humanized mice xenotransplanted with MDA-MB-231; assay type: in vivo, human
Procedure: Fetal bovine serum (FBS, 16000-044, Thermofisher scientific, USA), penicillin-streptomycin; 10,000 units/ml penicillin and 10,000 μg/ml streptomycin (15140122, Thermofisher scientific, USA); and RPMI1640 (A1049101, Thermofisher scientific, USA) per 100 ml were mixed and used.
The cells were suspended using Trypsin-EDTA (Cat. 25200-072, Thermofisher scientific, USA). The suspended cells were collected by centrifugation (125×g, 5 minutes) using a centrifuge, transferred to a new medium and a new flask, and passage cultured. The cultured cells were put to a centrifugation tube on the day of cell line transplantation and then collected. […] 8-week-old female NSGb2m (NOD.Cg-B2m^tm1UncPrkdc^scidIl2rg^tm1Wjl/SzJ) mice were purchased from Joongang Bio (Korea) and used for the test. The body weight was measured the next day after the end of the quarantine and acclimation period, and then the human-derived PBMC cell suspension (5×10^6 cells/0.2 ml) prepared for healthy animals was filled into a disposable syringe and administered to the caudal vein of the animals. General symptoms were observed once a day after cell transplantation.
A certain period of time after the cell transplantation, the tumor volume was measured for animals with no abnormalities in the health condition of the animals, and 32 subjects were selected so that the average of each group reached 40 to 80 mm^3. The selected animals were grouped into a total of 4 groups as evenly as possible based on tumor volume and body weight, each group including 8 animals.
General symptoms such as appearance, behavior, and excrement were observed once a day during the observation period, and deceased animals were identified. Body weight was measured on the day of cell line transplantation, twice a week, and on the day of animal sacrifice. The major axis (maximum length, L) and minor axis (perpendicular width, W) of the tumor were measured using a caliper (Digital caliper, mitutoyo, Japan) three times a week during the observation period, and the tumor volume (TV) was calculated by substituting them into the following equations.
The tumor volume before administration of each subject was set as the value measured at the time of grouping.

[2] = day 42 vs day 21 after tumor transplantation, 8 animals per group

Compound: CNC(=O)c1ccccc1Sc1ccc2c(/C=C/c3ccccn3)n[nH]c2c1 [Axitinib, reference compound]
- Tumor size (LL/2 cell line; Day 0, mean ± SD): 55.77 ± 11.25 mm^3
- Tumor size (LL/2 cell line; Day 2, mean ± SD): 88.73 ± 21.26 mm^3
- Tumor size (LL/2 cell line; Day 5, mean ± SD): 179.31 ± 52.62 mm^3
- Tumor size (LL/2 cell line; Day 7, mean ± SD): 362.30 ± 97.92 mm^3
- Tumor size (LL/2 cell line; Day 9, mean ± SD): 584.17 ± 172.94 mm^3
- Tumor size (LL/2 cell line; Day 12, mean ± SD): 892.90 ± 256.88 mm^3
- Tumor size (LL/2 cell line; Day 14, mean ± SD): 1292.27 ± 385.43 mm^3
- Tumor size (LL/2 cell line; Day 16, mean ± SD): 1775.26 ± 462.50 (9) mm^3
- Tumor size (LL/2 cell line; Day 19, mean ± SD): 2551.08 ± 695.31 (9) mm^3
- Tumor size (LL/2 cell line; Day 21, mean ± SD): 4236.33 ± 1060.18 (9)**^,## mm^3
- Tumor size (CT26 cells; Day 0, mean ± SD): 61.67 ± 12.58 mm^3
- Tumor size (CT26 cells; Day 5, mean ± SD): 261.76 ± 61.86 mm^3
- Tumor size (CT26 cells; Day 7, mean ± SD): 354.05 ± 104.90 mm^3
- Tumor size (CT26 cells; Day 9, mean ± SD): 442.98 ± 148.70 mm^3
- Tumor size (CT26 cells; Day 12, mean ± SD): 529.85 ± 206.76 mm^3
- Tumor size (CT26 cells; Day 14, mean ± SD): 671.72 ± 303.14* mm^3
- Tumor size (CT26 cells; Day 16, mean ± SD): 970.72 ± 475.99** mm^3
- Tumor size (CT26 cells; Day 19, mean ± SD): 1129.12 ± 639.16**** mm^3
- Tumor size (CT26 cells; Day 21, mean ± SD): 1710.57 ± 1133.79**** mm^3

Compound: Cc1cccc(-c2nn3c(c2-c2ccnc4ccc(C(N)=O)cc24)CCC3)n1 [Galunisertib, reference compound]
- Tumor size ([1]; Day 0): 61.98 ± 12.23 mm^3
- Tumor growth inhibition ([1]; Day 2): 15.60 ± 38.26%
- Tumor size ([1]; Day 2): 187.20 ± 55.14 mm^3
- Tumor growth inhibition ([1]; Day 4): 34.09 ± 27.14%
- Tumor size ([1]; Day 4): 260.69 ± 78.70 mm^3
- Tumor growth inhibition ([1]; Day 7): 21.12 ± 34.98%
- Tumor size ([1]; Day 7): 398.78 ± 146.30 mm^3

Compound: CC(=O)O[C@H]1C(=O)[C@@]2(C)[C@H]([C@H](OC(=O)c3ccccc3)[C@]3(O)C[C@H](OC(=O)[C@H](O)[C@@H](NC(=O)c4ccccc4)c4ccccc4)C(C)=C1C3(C)C)[C@]1(OC(C)=O)CO[C@@H]1C[C@@H]2O [Paclitaxel, reference compound]
- number of mice with tumor growth inhibition rate of 30% or more (EMT6 cells; EMT6, 10 animals per group): 7 mice
- number of mice with tumor growth inhibition rate of 50% or more (EMT6 cells; EMT6, 10 animals per group): 4 mice
- number of mice with tumor growth inhibition rate of 80% or more (EMT6 cells; EMT6, 10 animals per group): 2 mice
- tumor size vs control (EMT6 cells; day 13, mGI-101 3 mg/kg i.v. QW, Paclitaxel 10 mg/kg i.p. 7 consecutive days): statistically significantly lower

Compound: Keytruda: Keytruda (Pembrolizumab, MSD), an anti-PD-1 antibody [reference compound]
- tumor growth (MDA-MB-231 cells; GI101 6 mg/kg, Keytruda 5 mg/kg, 4 administrations, compared with the control (hIgG4)): tumor growth inhibition
- number of mice with tumor growth inhibition rate of 30% or more (MDA-MB-231 cells; [2]): 7 mice
- number of mice with tumor growth inhibition rate of 50% or more (MDA-MB-231 cells; [2]): 5 mice
- number of mice with tumor growth inhibition rate of 80% or more (MDA-MB-231 cells; [2]): 3 mice

Source: patent US11857601B2, “Pharmaceutical composition for cancer treatment comprising fusion protein including IL-2 protein and CD80 protein and anticancer drug” (GI INNOVATION, INC., priority 2020, dated 2024)
